Patent US7910751B2, “Heterocyclidene acetamide derivative” (Mochida Pharmaceutical Co., Ltd., priority 2005, dated 2011)

Target: T1, human TRPV1 (Homo sapiens, UniProt Q8NER1)
T1 construct: expressed in transfected cells; host or cells: CHO-K1
Experiment: Measurement of capsaicin-induced Ca influx in human TRPV1 transformed CHO cell line using FDSS-6000
Type: cell-based
Settings: concentration at which the capsaicin concentration-reaction curve is shifted two times to the right, human TRPV1 transformed CHO cells

T1 sequence (Q8NER1 whole entry): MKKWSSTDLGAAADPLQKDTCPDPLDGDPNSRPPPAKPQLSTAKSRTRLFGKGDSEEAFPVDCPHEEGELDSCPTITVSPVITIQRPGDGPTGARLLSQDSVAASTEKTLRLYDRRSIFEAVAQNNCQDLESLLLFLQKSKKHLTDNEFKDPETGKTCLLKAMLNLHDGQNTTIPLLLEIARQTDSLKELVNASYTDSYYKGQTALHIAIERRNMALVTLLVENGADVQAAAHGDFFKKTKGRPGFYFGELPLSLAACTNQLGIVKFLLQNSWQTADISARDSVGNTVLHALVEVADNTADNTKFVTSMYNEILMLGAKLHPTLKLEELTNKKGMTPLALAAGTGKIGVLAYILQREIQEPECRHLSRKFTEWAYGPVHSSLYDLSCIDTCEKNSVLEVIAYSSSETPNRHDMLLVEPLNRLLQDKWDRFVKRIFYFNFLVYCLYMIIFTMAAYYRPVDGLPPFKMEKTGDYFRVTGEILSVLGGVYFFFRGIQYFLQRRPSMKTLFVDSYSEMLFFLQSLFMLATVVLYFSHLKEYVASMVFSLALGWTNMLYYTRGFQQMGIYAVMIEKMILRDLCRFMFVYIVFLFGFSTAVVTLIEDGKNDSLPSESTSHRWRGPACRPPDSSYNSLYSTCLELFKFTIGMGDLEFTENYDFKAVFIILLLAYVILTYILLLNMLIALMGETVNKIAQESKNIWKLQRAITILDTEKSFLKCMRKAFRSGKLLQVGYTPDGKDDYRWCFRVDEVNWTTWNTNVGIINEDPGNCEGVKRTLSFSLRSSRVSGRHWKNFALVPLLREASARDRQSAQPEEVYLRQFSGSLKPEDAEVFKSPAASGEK

O=C(/C=C1\CCCOc2cc(C(F)(F)F)ccc21)Nc1ccc2c(c1)OC(F)(F)O2 [Example 143, (E)-2-(8-trifluoromethyl-3,4-dihydrobenzo[b]oxepin-5(2H)-ylidene)-N-(2,2-difluoro-1,3-benzodioxol-5-yl)acetamide]
A2 VALUE: B (compounds having an A2 value of 100 nM or more are represented by B)

O=C(/C=C1\CCCOc2cc(C(F)(F)F)ccc21)Nc1ccc2c(c1)OCO2 [Example 144, (E)-2-(8-trifluoromethyl-3,4-dihydrobenzo[b]oxepin-5(2H)-ylidene)-N-(1,3-benzodioxol-5-yl)acetamide]
A2 VALUE: A (compounds of the present invention having an A2 value of less than 100 nM are represented by A)

Cn1ccc2cc(NC(=O)/C=C3\CCCOc4cc(C(F)(F)F)ccc43)ccc21 [Example 149, (E)-2-(8-trifluoromethyl-3,4-dihydrobenzo[b]oxepin-5(2H)-ylidene)-N-(1-methylindol-5-yl)acetamide]
A2 VALUE: A (compounds of the present invention having an A2 value of less than 100 nM are represented by A)

O=C(/C=C1\CCCOc2cc(C(F)(F)F)ccc21)Nc1cccc2c(O)cccc12 [Example 150, (E)-2-(8-trifluoromethyl-3,4-dihydrobenzo[b]oxepin-5(2H)-ylidene)-N-(5-hydroxynaphthalen-1-yl)acetamide]
A2 VALUE: A (compounds of the present invention having an A2 value of less than 100 nM are represented by A)

O=C(/C=C1\CCCOc2cc(C(F)(F)F)ccc21)Nc1ccc2ccn(CCO)c2c1 [Example 151, (E)-2-(8-trifluoromethyl-3,4-dihydrobenzo[b]oxepin-5(2H)-ylidene)-N-(1-(2-hydroxyethyl)indol-6-yl)acetamide]
A2 VALUE: A (compounds of the present invention having an A2 value of less than 100 nM are represented by A)

Cn1ccc2ccc(NC(=O)/C=C3\CCCOc4cc(C(F)(F)F)ccc43)cc21 [Example 152, (E)-2-(8-trifluoromethyl-3,4-dihydrobenzo[b]oxepin-5(2H)-ylidene)-N-(1-methylindol-6-yl)acetamide]
A2 VALUE: A (compounds of the present invention having an A2 value of less than 100 nM are represented by A)

O=C(/C=C1\CCCOc2cc(C(F)(F)F)ccc21)Nc1ccc2c(c1)C(=O)CC2 [Example 157, (E)-2-(8-trifluoromethyl-3,4-dihydrobenzo[b]oxepin-5(2H)-ylidene)-N-(indan-1-on-6-yl)acetamide]
A2 VALUE: A (compounds of the present invention having an A2 value of less than 100 nM are represented by A)

O=C(/C=C1\CCCOc2cc(C(F)(F)F)ccc21)Nc1cccc2c1CCC2O (centres unmarked) [Example 160, (E)-2-(8-trifluoromethyl-3,4-dihydrobenzo[b]oxepin-5(2H)-ylidene)-N-(indan-1-ol-4-yl)acetamide]
A2 VALUE: A (compounds of the present invention having an A2 value of less than 100 nM are represented by A)

CC(=O)OC1CCc2c(NC(=O)/C=C3\CCCOc4cc(C(F)(F)F)ccc43)cccc21 (centres unmarked) [Example 161, (E)-2-(8-trifluoromethyl-3,4-dihydrobenzo[b]oxepin-5(2H)-ylidene)-N-(indan-1-acetoxy-4-yl)acetamide]
A2 VALUE: B (compounds having an A2 value of 100 nM or more are represented by B)

O=C(/C=C1\CCCOc2cc(C(F)(F)F)ccc21)Nc1cccc2c1CC(O)C2 (centres unmarked) [Example 163, (E)-2-(8-trifluoromethyl-3,4-dihydrobenzo[b]oxepin-5(2H)-ylidene)-N-(indan-2-ol-4-yl)acetamide]
A2 VALUE: A (compounds of the present invention having an A2 value of less than 100 nM are represented by A)

O=C(/C=C1\CCCOc2cc(C(F)(F)F)ccc21)Nc1ccc2c(ccn2CCO)c1 [Example 164]
A2 VALUE: A (compounds of the present invention having an A2 value of less than 100 nM are represented by A)

O=C(/C=C1\CCCOc2cc(C(F)(F)F)ccc21)Nc1ccc2c(c1)OC(CO)CO2 (centres unmarked) [Example 165, (E)-2-(8-trifluoromethyl-3,4-dihydrobenzo[b]oxepin-5(2H)-ylidene)-N-(3-hydroxymethyl-2,3-dihydro-1,4-benzodioxin-6-yl)acetamide]
A2 VALUE: A (compounds of the present invention having an A2 value of less than 100 nM are represented by A)

O=C(/C=C1\CCCOc2cc(C(F)(F)F)ccc21)Nc1ccc2c(c1)C(=O)NC2 [Example 166, (E)-2-(8-trifluoromethyl-3,4-dihydrobenzo[b]oxepin-5(2H)-ylidene)-N-(2,3-dihydro-isoindol-1-on-6-yl)acetamide]
A2 VALUE: A (compounds of the present invention having an A2 value of less than 100 nM are represented by A)

O=C(/C=C1\CCCOc2cc(C(F)(F)F)ccc21)Nc1ccc2c(c1)NCCC2 [Example 167, (E)-2-(8-trifluoromethyl-3,4-dihydrobenzo[b]oxepin-5(2H)-ylidene)-N-(1,2,3,4-tetrahydroquinolin-7-yl)acetamide]
A2 VALUE: A (compounds of the present invention having an A2 value of less than 100 nM are represented by A)

O=C(/C=C1\CCCOc2cc(C(F)(F)F)ccc21)Nc1cccc2c1CC1OC1C2 (centres unmarked) [Example 169, (E)-2-(8-trifluoromethyl-3,4-dihydrobenzo[b]oxepin-5(2H)-ylidene)-N-(1a,2,7,7a-tetrahydronaphtho[b]oxiren-3-yl)acetamide]
A2 VALUE: A (compounds of the present invention having an A2 value of less than 100 nM are represented by A)

O=C(/C=C1\CCCOc2cc(C(F)(F)F)ccc21)Nc1ccc2c(c1)C(O)CC2 (centres unmarked) [Example 175, (E)-2-(8-trifluoromethyl-3,4-dihydrobenzo[b]oxepin-5(2H)-ylidene)-N-(indan-1-ol-6-yl)acetamide]
A2 VALUE: A (compounds of the present invention having an A2 value of less than 100 nM are represented by A)

O=C(/C=C1\CCCOc2cc(C(F)(F)F)ccc21)Nc1ccc2c(c1)C(=O)N(CCO)C2 [Example 176, (E)-2-(8-trifluoromethyl-3,4-dihydrobenzo[b]oxepin-5(2H)-ylidene)-N-(2-hydroxyethyl-2,3-dihydro-isoindol-1-on-6-yl)acetamide]
A2 VALUE: B (compounds having an A2 value of 100 nM or more are represented by B)

CN1C(=O)CCc2ccc(NC(=O)/C=C3\CCCOc4cc(C(F)(F)F)ccc43)cc21 [Example 178, (E)-2-(8-trifluoromethyl-3,4-dihydrobenzo[b]oxepin-5(2H)-ylidene)-N-(1-methyl-2-oxo-1,2,3,4-tetrahydroquinolin-7-yl)acetamide]
A2 VALUE: A (compounds of the present invention having an A2 value of less than 100 nM are represented by A)

O=C(/C=C1\CCCOc2cc(C(F)(F)F)ccc21)Nc1ccc2c(c1)C(CO)CCC2 (centres unmarked) [Example 179, (E)-2-(8-trifluoromethyl-3,4-dihydrobenzo[b]oxepin-5(2H)-ylidene)-N-(8-hydroxymethyl-5,6,7,8-tetrahydronaphthalen-2-yl)acetamide]
A2 VALUE: A (compounds of the present invention having an A2 value of less than 100 nM are represented by A)

O=C(/C=C1\CCCOc2cc(C(F)(F)F)ccc21)Nc1cccc2c1CC(O)CO2 (centres unmarked) [Example 183, (E)-2-(8-trifluoromethyl-3,4-dihydrobenzo[b]oxepin-5(2H)-ylidene)-N-(3-hydroxy-chroman-5-yl)acetamide]
A2 VALUE: A (compounds of the present invention having an A2 value of less than 100 nM are represented by A)
